Laboratory results: US6599747B1, “Soil test” (University of Lancaster, priority 1998, dated 2003)

Assay: Extraction of soil-associated 14C-9-phenanthrene with aqueous HPCD solution
Assay type: physicochemical
Conditions: for Concentration Extracted into HPCD Solution: 20 h
Description: A sample was “spiked” with 10 mg kg^−1 14C-9phenanthrene. Samples of the soil (1.25 g) were then extracted for 20 hours (sufficient time for extraction of the rapidly i.e. non-kinetically restrained fraction of compounds to be exchanged—see Example 2) with increasing concentration solutions (25 ml) of HPCD in water. The amount of activity exchanged into the HPCD solution was measured as was the total activity present. The results are shown in Table 1 in which the activity units are dpm g^−1 soil (where dpm stands for disintegrations per minute).
The above extraction was repeated but using an HPCD solution having a concentration of 50 mM. However the extraction was terminated after 3, 6, 12, 18, 24 and 40 hours. The results are shown in Table 2 in which the activity units are dpm […] soil (where dpm stands for disintegration per minute).
Soil was “spiked” to concentrations of 25 and 50 mg kg^−1. The above extraction was repeated but using a HPCD solution having a concentration of 50 mM. Soil samples were aged for 1, 42 and 84 d prior to extraction. An extraction time of 20 h was used as before (Example 1 and 2 ). The biodegradability of the soil associated ^14C-9-phenanthrene was assessed using respirometry. Respirometers consisted of Erlyn,eyer flasks (250 mL), to which soil (10 g) and water (30 mL) were added. The flasks were innoculated (10^7-10^8 g^−1 soil) with a catabolocally active microbial culture. The sealed flasks were shaken and the carbon dioxide evolved from the biodegration of the phenanthrene trapped in potassium hydroxide (1 M, 1 mL.) Mineralisation was measured until it platcauted (240 h).

[1] = HPCD 0 mM, 20 h extraction, soil spiked 10 mg kg^−1
[2] = HPCD 5 mM, 20 h extraction, soil spiked 10 mg kg^−1
[3] = HPCD 10 mM, 20 h extraction, soil spiked 10 mg kg^−1
[4] = HPCD 20 mM, 20 h extraction, soil spiked 10 mg kg^−1
[5] = HPCD 40 mM, 20 h extraction, soil spiked 10 mg kg^−1
[6] = HPCD 50 mM, 20 h extraction, soil spiked 10 mg kg^−1
[7] = HPCD 60 mM, 20 h extraction, soil spiked 10 mg kg^−1

- HPCD solution concentration giving maximum extraction (20 h extraction, soil spiked 10 mg kg^−1): 40 mM
- % Exchangeable with HPCD solution [1]: 2.79%
- Activity Exchanged into HPCD Solution [1]: 86.96 dpm g^−1 soil
- % Exchangeable with HPCD solution [2]: 38.06%
- Activity Exchanged into HPCD Solution [2]: 1186.25 dpm g^−1 soil
- % Exchangeable with HPCD solution [3]: 45.88%
- Activity Exchanged into HPCD Solution [3]: 1429.98 dpm g^−1 soil
- % Exchangeable with HPCD solution [4]: 57.51%
- Activity Exchanged into HPCD Solution [4]: 1792.47 dpm g^−1 soil
- % Exchangeable with HPCD solution [5]: 71.63%
- Activity Exchanged into HPCD Solution [5]: 2232.56 dpm g^−1 soil
- extraction time after which the rapidly (non-kinetically restrained) fraction was extracted (HPCD 50 mM): 6 h
- % Exchangeable with HPCD solution [6]: 64.33%
- Activity Exchanged into HPCD Solution [6]: 2005.03 dpm g^−1 soil
- % Exchangeable with HPCD solution (HPCD 50 mM, extraction time 0 h): 0.0%
- % Exchangeable with HPCD solution (HPCD 50 mM, extraction time 3 h): 64.2%
- % Exchangeable with HPCD solution (HPCD 50 mM, extraction time 6 h): 73.4%
- % Exchangeable with HPCD solution (HPCD 50 mM, extraction time 12 h): 72.8%
- % Exchangeable with HPCD solution (HPCD 50 mM, extraction time 18 h): 74.5%
- % Exchangeable with HPCD solution (HPCD 50 mM, extraction time 24 h): 76.8%
- % Exchangeable with HPCD solution (HPCD 50 mM, extraction time 40 h): 75.6%
- % Exchangeable with HPCD solution [7]: 69.74%
- Activity Exchanged into HPCD Solution [7]: 2173.65 dpm g^−1 soil
- Concentration Extracted into HPCD Solution (soil spiked 25 mg/kg^−1, aged 1 d, HPCD 50 mM): 19.5 mg/kg^−1
- Concentration Extracted into HPCD Solution (soil spiked 25 mg/kg^−1, aged 42 d, HPCD 50 mM): 17.6 mg/kg^−1
- Concentration Extracted into HPCD Solution (soil spiked 25 mg/kg^−1, aged 84 d, HPCD 50 mM): 15.5 mg/kg^−1
- Concentration Extracted into HPCD Solution (soil spiked 50 mg/kg^−1, aged 1 d, HPCD 50 mM): 29.9 mg/kg^−1
- Concentration Extracted into HPCD Solution (soil spiked 50 mg/kg^−1, aged 42 d, HPCD 50 mM): 15.4 mg/kg^−1
- Concentration Extracted into HPCD Solution (soil spiked 50 mg/kg^−1, aged 84 d, HPCD 50 mM): 1.0 mg/kg^−1
Compound: c1ccc2c(c1)ccc1ccccc12 [phenanthrene]
